Several values for one entry are separate records, joined by “and”; a condition that tells them apart may be missing. Equal values may be shown once. Entries after “also recorded” stand apart in the source; their conditions may differ. Ends that are not written are not given here.
Key:
[1] = biological target: T1, dipeptidyl-peptidase IV (DPP-IV) (Homo sapiens, UniProt P27487); test: DPP-IV inhibition assay on SPOT-synthesized peptides (cleaved from cellulose membrane); assay type: biochemical; details: for Percent inhibition of DPP-IV activity, SPOT-synthesized deca-peptides: peptides cleaved from cellulose membrane, concentration not known (semi-quantitative), averages of four determinations from two experiments
T1 construct: purchased Creative BioMart (Shirley, NY, USA); host or cells: HEK293 human cells
Description: (§1) Recombinant human dipeptidyl-peptidase IV (DPP-IV, EC 3.4.14.5, expressed in HEK293 human cells, >95% purity, activity >5500 pmoles Gly–Pro–7-amido-4-methylcoumarin/min/µg) was purchased from Creative BioMart (Shirley, NY, USA) while polyclonal goat DPP-IV antibody and polyclonal donkey anti-goat secondary antibody conjugated to horseradish peroxidase were obtained from R&D Systems (Minneapolis, MN, USA). Pierce™ ECL western blotting substrate and protein-free (TBS) blocking buffer were from Thermo Scientific (Rockford, IL, USA). Gly–Pro–p-nitroanilide (H-Gly–Pro–p-NA∙HCl) was purchased from Bachem Americas (Torrance, CA, USA). Synthesized peptides (≥95% purity) were prepared and purified by GL Biochem (Shanghai) Ltd. (Shanghai, China).
Peptide arrays of deca-peptides spanning the entire α-lactalbumin sequence with a frame shift of one amino acid between successive sequences were prepared by Kinexus Bioinformatics Corporation (Vancouver, BC, Canada). The peptides were synthesized from the C-terminal amino acid using the SPOT technology consisting of the stepwise coupling of the Fmoc-protected amino acids and cleavage of the side chain protection groups. The α-lactalbumin-derived peptides were synthesized on trioxatridecanediamine (TOTD) and β-alanine-modified Whatman 540 cellulose membranes for the binding and inhibition assays, respectively. For the inhibition assay, the peptides were synthesized in large dots (5–7 mm in diameter) and the quality of the synthesis was verified by HPLC analysis of quality controls spots included on the membranes.
In order to determine the effect of the SPOT-synthesized peptides on the activity of the DPP-IV enzyme, the peptides were first cleaved from the cellulose support by incubating the membranes with gaseous ammonia overnight. Peptide spots (5 mm in diameter) were then punched out using a single-hole punch and transferred into microcentrifuge tubes containing 150 µL of acetonitrile (50% in 100 mM Tris–HCl buffer pH 8.0). The peptide solution (50 µL) was pipetted into a 96-well microplate with 35 µL of the chromogenic substrate Gly–Pro–p-NA (0.29 mM in 100 mM Tris–HCl buffer pH 8.0). The mixture was pre-incubated for 10 min at 37 °C, whereupon 15 µL of DPP-IV (25 mU/mL) was added and the enzymatic reaction was carried out for 30 min at 37 °C. The reaction was then terminated by addition of 100 µL of 1 M sodium acetate buffer pH 4.0 and the absorbance of the released p-nitroaniline was measured at 405 nm using a Tecan Infinite® 200 Pro microplate reader (ESBE Scientific, Markham, ON, Canada). Positive and negative controls (DPP-IV activity with no inhibitor and no DPP-IV activity, respectively) were prepared using punched peptide-free cellulose spots from the same membrane used for peptide synthesis, and adding Tris-HCl buffer in place of the sample and in place of the sample and enzyme solution, respectively.
One unit of DPP-IV was defined as the concentration of enzyme that releases 1 µmol per min of p-nitroaniline from Gly–Pro–p-NA (100 µM) at 37 °C and pH 8.0.

[2] = biological target: T1, dipeptidyl-peptidase IV (DPP-IV); test: DPP-IV inhibition assay on traditionally-synthesized peptides; assay type: biochemical; details: 250 µM of peptides (final assay concentration); averages of three determinations
Description: as §1
The peptides were dissolved in a mixture of acetonitrile and H2O and further diluted in 100 mM Tris-HCl pH 8.0 buffer to the desired concentrations. In a 96-well microplate, 25 µL of sample were pre-incubated with 25 µL of 100 mM Tris-HCl pH 8.0 buffer and 35 µL of Gly–Pro–p-NA (0.29 mM in 100 mM Tris-HCl buffer pH 8.0) at 37 °C for 10 min. The enzymatic reaction was started by addition of 15 µL of DPP-IV solution (25 mU/mL) and carried out at 37 °C for 30 min. Sodium acetate buffer (1 M, pH 4.0, 100 µL) was added to stop the reaction and the absorbance of the released p-nitroaniline was measure at 405 nm using a Tecan Infinite® 200 Pro microplate reader. The positive and negative controls were prepared by using Tris-HCl buffer (100 mM, pH 8.0) in place of the sample and in place of the sample and enzyme solution, respectively.

DPP-IV = details: Table S2; cited from earlier work
[3] = biological target: T1, dipeptidyl-peptidase IV (DPP-IV); test: Probing of membrane-bound peptide arrays: binding of DPP-IV to deca-peptides (immunoassay, chemiluminescence); details: for Binding of DPP-IV to cellulose-bound deca-peptide (in words): peptide array on cellulose membrane, DPP-IV 10 μg/mL
Protocol: The interaction between the DPP-IV enzyme and deca-peptides spanning the entire α-lactalbumin sequence (Table S1) was first determined by immunoassay and visualized using an enhanced chemiluminescence substrate (Figure 1).
The membranes were first blocked with protein-free (Tris-buffered saline (TBS)) blocking buffer containing 0.05% Tween-20 for 4 h at room temperature and then incubated with DPP-IV (10 μg/mL in blocking buffer) overnight at 4 °C. The membranes were washed with TBS (50 mM Tris, 136 mM NaCl, 0.05% Tween-20, pH 8.0) four times for 15 min each, after which they were incubated with the polyclonal goat DPP-IV antibody (0.2 µg/mL) for 8 h at 4 °C. The membranes were once again washed with TBS four times for 15 min each prior to being incubated with anti-goat secondary antibody conjugated to horseradish peroxidase (0.1 µg/mL) overnight at 4 °C. Finally, the membranes were washed four more times for 15 min each; then a thin layer of chemiluminescence detection mixture, prepared according to the manufacturer’s instructions, was applied for 1 min and the luminescence generated from the spots on the membranes with bound DPP-IV was measured using a ChemiDoc™ MP system (Bio-Rad Laboratories (Canada) Ltd., Mississauga, ON, Canada).

[4] = biological target: T1, dipeptidyl-peptidase IV (DPP-IV); test: Determination of the mode of inhibition and the inhibition constant (Ki); assay type: biochemical
Protocol: The traditionally-synthesized peptides showing the highest inhibitory activity against DPP-IV were further studied for their mode of action on the enzyme as previously described with the following modifications: the substrate (25 µL) was combined with 100 mM Tris-HCl buffer pH 8.0 (35 µL) and the sample (25 µL) and pre-incubated for 10 min at 37 °C, after which the enzymatic reaction was started by addition of the DPP-IV enzyme (15 µL of a 25 mU/mL solution).
The mode of inhibition and Ki values of the inhibitory peptides were determined by fitting the initial velocity versus substrate concentration data to nonlinear regression models using the GraphPad Prism software (version 6, GraphPad Software, San Diego, CA, USA). The Ki values are expressed as final assay concentrations.

T1 sequence (P27487 whole entry): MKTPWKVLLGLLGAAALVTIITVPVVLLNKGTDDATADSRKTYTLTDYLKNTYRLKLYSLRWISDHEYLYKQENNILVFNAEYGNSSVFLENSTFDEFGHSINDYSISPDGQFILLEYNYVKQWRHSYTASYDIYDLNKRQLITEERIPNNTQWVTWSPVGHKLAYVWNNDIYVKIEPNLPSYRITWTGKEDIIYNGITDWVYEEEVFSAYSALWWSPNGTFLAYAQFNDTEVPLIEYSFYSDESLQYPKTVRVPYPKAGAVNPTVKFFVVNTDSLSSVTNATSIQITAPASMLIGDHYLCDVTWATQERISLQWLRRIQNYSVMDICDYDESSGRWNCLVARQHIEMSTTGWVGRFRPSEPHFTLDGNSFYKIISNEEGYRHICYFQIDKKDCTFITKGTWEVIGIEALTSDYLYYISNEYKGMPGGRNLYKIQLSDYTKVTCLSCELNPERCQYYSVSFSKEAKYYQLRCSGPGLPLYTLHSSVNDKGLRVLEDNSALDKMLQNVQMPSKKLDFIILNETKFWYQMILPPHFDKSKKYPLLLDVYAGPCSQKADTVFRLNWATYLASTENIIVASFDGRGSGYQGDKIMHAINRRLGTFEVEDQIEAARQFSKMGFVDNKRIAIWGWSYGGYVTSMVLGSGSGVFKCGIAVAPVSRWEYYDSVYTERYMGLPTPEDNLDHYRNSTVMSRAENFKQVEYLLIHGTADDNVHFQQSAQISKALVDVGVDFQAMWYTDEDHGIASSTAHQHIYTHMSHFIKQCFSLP

Sequence | Percent inhibition of DPP-IV activity, SPOT-synthesized deca-peptides [1] | inhibition at 250 µM [2] | other results
CKDDQNPHSS [F6, CKDDQNPHSS] | 15% | -3% | –
DTQAIVQNND [D4, DTQAIVQNND] | 14% | 2% | –
EQLTKCEVFR [A1, EQLTKCEVFR] | 11% | 10% | –
FHTSGYDTQA [C9, FHTSGYDTQA] | 12% | 2% | –
GYGGVSLPEW [B6, GYGGVSLPEW] | 17% | 8% | –
ICNISCDKFL [G6] | 31% | – | Binding of DPP-IV to cellulose-bound deca-peptide (in words) [3]: moderate or no binding
IPAVFKIDA | – | – | Reported Relationship to DPP-IV (DPP-IV): inhibitor
IPAVFKIDAL [K7, IPAVFKIDAL] | 25% | 48% | Ki [4]: 156 ± 11 µM
LAHKALCSEK [J6, LAHKALCSEK] | 27% | 31% | Ki [4]: 217 ± 9 µM
LCSEKLDQWL [J11, LCSEKLDQWL] | 25% | 25% | Ki [4]: 217 ± 15 µM
LKPTPEGDL | – | – | Reported Relationship to DPP-IV (DPP-IV): inhibitors
LKPTPEGDLE [K6, LKPTPEGDLE] | 23% | 24% | Ki [4]: 729 ± 128 µM
LKPTPEGDLEIL | – | – | Reported Relationship to DPP-IV (DPP-IV): inhibitors
LPEWVCTTFH [C1, LPEWVCTTFH] | 26% | 26% | Ki [4]: 300 ± 16 µM
NDSTEYGLFQ [E1] | 14% | – | –
NKIWCKDDQN [F2] | 17% | – | –
NNDSTEYGLF [D11, NNDSTEYGLF] | 11% | – | –

Sequence | Percent inhibition of DPP-IV activity, SPOT-synthesized deca-peptides [1] | inhibition at 250 µM [2] | other results
NNKIWCKDDQ [F1] | 22% | – | –
NPHSSNICNI [F11, NPHSSNICNI] | 15% | – | –
QINNKIWCKD [E10, QINNKIWCKD] | 6% | – | –
QNNDSTEYGL [D10, QNNDSTEYGL] | 14% | – | –
QNPHSSNICN [F10, QNPHSSNICN] | 8% | 2% | –
RELKDLKGYG [A10] | 14% | – | –
SCDKFLDDDL [G10] | 21% | – | –
SLPEWVCTTF [B11] | 9% | – | –
STEYGLFQIN [E3] | 13% | – | –
TEYGLFQINN [E4] | 9% | – | –
TSGYDTQAIV [C11, TSGYDTQAIV] | 14% | -1% | –
VFRELKDLKG [A8, VFRELKDLKG] | 14% | 3% | –
VQNNDSTEYG [D9] | 13% | – | –
VSLPEWVCTT [B10] | 15% | – | –
WCKDDQNPHS [F5] | 29% | – | Category: inhibitory activity ([1]; class by decrease in DPP-IV activity): High inhibitory activity (High inhibitory activity refers to peptides able to cause more than 20% decrease in DPP-IV activity); αKi ([4]; traditionally synthesized peptide, un-competitive inhibition, final assay concentration, average ± standard error, triplicate): 76 µM and 76 ± 5 µM; Mode of Inhibition ([4]; traditionally synthesized peptides, Lineweaver-Burk / nonlinear regression): Un-competitive; Binding of DPP-IV to cellulose-bound deca-peptide (in words) [3]: moderate or no binding; also recorded: no or only moderate interaction with DPP-IV; Category: binding ([3]; peptide array spot, relative luminescence intensity): moderate/no binding; % DPP-IV Inhibition Traditionally-Synthesized [2]: 51%
YGLFQINNKI [E6] | 11% | – | –
YPSKPDNPGE [K11, YPSKPDNPGE, reference compound] | 31% | 25% | Ki [4]: 262 ± 17 µM

Continued, in another order:

Percent inhibition of DPP-IV activity, SPOT-synthesized deca-peptides [1] | Sequence | inhibition at 250 µM [2] | other results
15% | HSQGTFTSDY [K8, reference compound] | – | Reported Relationship to DPP-IV (DPP-IV): Inhibitor; Binding of DPP-IV to cellulose-bound deca-peptide (in words) [3]: found to bind to DPP-IV
16% | IVTQTMKGLD [K5, reference compound] | – | Reported Relationship to DPP-IV (DPP-IV): Weak inhibitor; Binding of DPP-IV to cellulose-bound deca-peptide (in words) [3]: found to bind to DPP-IV
17% | KKILDKVGIN [I5] | – | Percent inhibition of DPP-IV activity, SPOT-synthesized deca-peptides ([1]; listed as KKILDKVGIN): less than 20%; Binding of DPP-IV to cellulose-bound deca-peptide (in words) [3]: strongest binding to DPP-IV
19% | SEKLDQWLCE [K2] | – | –
18% | VKKILDKVGI [I4] | – | Percent inhibition of DPP-IV activity, SPOT-synthesized deca-peptides ([1]; listed as VKKILDKVGI): less than 20%; Binding of DPP-IV to cellulose-bound deca-peptide (in words) [3]: strongest binding to DPP-IV
24% | YAEGTFISDY [K9, reference compound] | – | Binding of DPP-IV to cellulose-bound deca-peptide (in words) [3]: found to bind to DPP-IV

From article PMC4264199, “Peptide Array on Cellulose Support—A Screening Tool to Identify Peptides with Dipeptidyl-Peptidase IV Inhibitory Activity within the Sequence of α-Lactalbumin” (International Journal of Molecular Sciences, 2014)
